# Assay results from the RepoRT retention time repository.
# Assay: A: acetonitrile + 0.1% formic acid + 10 mM ammonium formate; B: 5% water + 95% acetonitrile + 0.1% formic acid + 10 mM ammonium formate; gradient (min/%B) 0/10 2/10 22/100 27/100 27.1/10
# Conditions: stereoisomer not certain
row,LC retention time [min],SMILES
1,0.431,COc1cc(C=CC(=O)CC(=O)C=Cc2ccc(O)c(OC)c2)ccc1O [Curcumin]
2,8.01,NC(CCSCC(N)C(=O)O)C(=O)O (centres undefined) [Cystathionine]
3,7.4,Nc1ccn(C2OC(COP(=O)(O)O)C(O)C2O)c(=O)n1 (centres undefined) [Cytidine 5'-monophosphate]
4,10.1,Nc1ccn(C2OC(COP(=O)(O)OP(=O)(O)OP(=O)(O)O)C(O)C2O)c(=O)n1 (centres undefined) [Cytidine 5'-triphosphate]
5,4.73,Nc1ccn(C2OC(CO)C(O)C2O)c(=O)n1 (centres undefined) [Cytidine]
6,3.35,Nc1ccnc(=O)[nH]1 [Cytosine]
7,6.72,N[C@H]1C(O)O[C@H](CO)[C@@H](O)[C@@H]1O (stereo partly drawn) [D-(+)-Glucosamine]
8,7.42,OCC1OC(OCC2OC(OC3(CO)OC(CO)C(O)C3O)C(O)C(O)C2O)C(O)C(O)C1O [D-(+)-Raffinose]
9,7.36,O=C(CO)[C@@H](O)[C@H](O)[C@H](O)COP(=O)(O)O [D-Fructose-6-phosphate]
10,8.21,N[C@H]1C(O)O[C@H](COP(=O)(O)O)[C@@H](O)[C@@H]1O (stereo partly drawn) [D-Glucosamine 6-phosphate]
11,7.76,O=P(O)(O)OCC1OC(O)C(O)C(O)C1O [D-Glucose 6-phosphate]
12,7.12,O=P(O)(O)OCC1OC(O)C(O)C1O [D-Ribose 5-phosphate]
13,0.473,O=c1c(-c2ccc(O)cc2)coc2cc(O)ccc12 [Daidzein]
14,2.64,O=c1[nH]cnc2c1ncn2C1CC(O)C(CO)O1 (centres undefined) [Deoxyinosine]
15,0.404,CCCCOC(=O)CCCCCCCCC(=O)OCCCC [Dibutyl sebacate]
16,0.456,O=C(O)Cc1ccccc1Nc1c(Cl)cccc1Cl [Diclofenac acid]
17,5.23,OCCNCCO [Diethanolamine]
18,0.43,CCOC(=O)CC(=O)OCC [Diethyl malonate]
19,0.425,CCOC(=O)CCC(=O)OCC [Diethyl succinate]
20,0.746,O=C1CCNC(=O)N1 [Dihydrouracil]
21,6.59,O=C(CO)COP(=O)(O)O [Dihydroxyacetone phosphate]

row,LC retention time [min],SMILES
1,1.04,COc1ccc(C2Sc3ccccc3N(CCN(C)C)C(=O)C2OC(C)=O)cc1 (centres undefined) [Diltiazem]
2,0.944,CN(C)CCOC(c1ccccc1)c1ccccc1 [Diphenhydramine]
3,4.22,NCCc1ccc(O)c(O)c1 [Dopamine]
4,1.04,CN(C)CCC=C1c2ccccc2COc2ccccc21 [Doxepin]
5,4.34,CCN(Cc1cccc(S(=O)(=O)O)c1)c1ccc(C(=C2C=CC(=[N+](CC)Cc3cccc(S(=O)(=O)O)c3)C=C2)c2ccccc2S(=O)(=O)[O-])cc1 [Erioglaucine]
6,0.57,O=C1OC2(c3ccccc31)c1cc(I)c(O)c(I)c1Oc1c2cc(I)c(O)c1I [Erythrosine B]
7,0.422,CCOC(=O)c1ccc(N)cc1 [Ethyl 4-aminobenzoate]
8,0.418,CCOC(=O)CC(C)=O [Ethyl acetoacetate]
9,6.91,O=C(O)CN(CCN(CC(=O)O)CC(=O)O)CC(=O)O [Ethylenediaminetetraacetic acid]
10,0.453,CCc1cccc2c3c([nH]c12)C(CC)(CC(=O)O)OCC3 (centres undefined) [Etodolac]
11,2.9,NC(N)=Nc1nc(CSCCC(N)=NS(N)(=O)=O)cs1 [Famotidine]
12,0.401,CC(C)OC(=O)C(C)(C)Oc1ccc(C(=O)c2ccc(Cl)cc2)cc1 [Fenofibrate]
13,0.564,COc1cc(/C=C/C(=O)O)ccc1O [Ferulic acid]
14,7.38,Cc1cc2nc3c(=O)[nH]c(=O)nc-3n(CC(O)C(O)C(O)COP(=O)(O)OP(=O)(O)OCC3OC(n4cnc5c(N)ncnc54)C(O)C3O)c2cc1C (centres undefined) [Flavin Adenine Dinucleotide]
15,0.425,O=c1cc(-c2ccccc2)oc2ccccc12 [Flavone]
16,0.978,CNCCC(Oc1ccc(C(F)(F)F)cc1)c1ccccc1 (centres undefined) [Fluoxetine]
17,0.561,CC(C)n1c(C=CC(O)CC(O)CC(=O)O)c(-c2ccc(F)cc2)c2ccccc21 (centres undefined) [Fluvastatin]
18,5.87,Nc1nc2ncc(CNc3ccc(C(=O)NC(CCC(=O)O)C(=O)O)cc3)nc2c(=O)[nH]1 (centres undefined) [Folic acid]
19,5.94,Nc1nc2c(c(=O)[nH]1)N(C=O)C(CNc1ccc(C(=O)NC(CCC(=O)O)C(=O)O)cc1)CN2 (centres undefined) [Folinic acid]
20,0.446,COc1ccc(-c2coc3cc(O)ccc3c2=O)cc1 [Formononetin]
21,0.586,NS(=O)(=O)c1cc(C(=O)O)c(NCc2ccco2)cc1Cl [Furosemide]

row,LC retention time [min],SMILES
1,4.73,Nc1nc2c(ncn2COC(CO)CO)c(=O)[nH]1 [Ganciclovir]
2,0.458,O=c1c(-c2ccc(O)cc2)coc2cc(O)cc(O)c12 [Genistein]
3,0.446,COc1ccc(Cl)cc1C(=O)NCCc1ccc(S(=O)(=O)NC(=O)NC2CCCCC2)cc1 [Glibenclamide]
4,0.423,Cc1ccc(S(=O)(=O)NC(=O)NN2CC3CCCC3C2)cc1 (centres undefined) [Gliclazide]
5,0.44,CCC1=C(C)CN(C(=O)NCCc2ccc(S(=O)(=O)NC(=O)NC3CCC(C)CC3)cc2)C1=O (centres undefined) [Glimepiride]
6,0.463,Cc1cnc(C(=O)NCCc2ccc(S(=O)(=O)NC(=O)NC3CCCCC3)cc2)cn1 [Glipizide]
7,0.417,COc1ccc2c(c1)C(=O)N(CCc1ccc(S(=O)(=O)NC(=O)NC3CCCCC3)cc1)C(=O)C2(C)C [Gliquidone]
8,0.412,CCCC(=O)OCC(COC(=O)CCC)OC(=O)CCC [Glycerol Tributyrate]
9,0.406,CCCCCC(=O)OCC(COC(=O)CCCCC)OC(=O)CCCCC [Glycerol Trihexanoate]
10,4.17,CC(CCC(=O)NCC(=O)O)C1CCC2C3C(O)CC4CC(O)CCC4(C)C3CC(O)C12C (centres undefined) [Glycocholic acid]
11,2.78,CC(CCC(=O)NCC(=O)O)C1CCC2C3CCC4CC(O)CCC4(C)C3CC(O)C12C (centres undefined) [Glycodeoxycholic acid]
12,5.81,CC(C)C[C@H](NC(=O)CN)C(=O)O [Glycyl-L-leucine]
13,5.97,NCC(=O)N[C@@H](Cc1ccc(O)cc1)C(=O)O [Glycyl-L-tyrosine]
14,6.02,CC(C)[C@H](NC(=O)CN)C(=O)O [Glycyl-L-valine]
15,7.02,NCC(=O)NCC(=O)O [Glycyl-glycine]
16,0.402,Cc1ccc(C(C)C)cc2c(C)ccc1-2 [Guaiazulene]
17,6.12,NC(N)=NCC(=O)O [Guanidoacetic acid]
18,3.98,Nc1nc2nc[nH]c2c(=O)[nH]1 [Guanine]
19,9.21,Nc1nc2c(ncn2C2OC(COP(=O)(O)OP(=O)(O)O)C(O)C2O)c(=O)[nH]1 (centres undefined) [Guanosine 5'-diphosphate]
20,7.36,Nc1nc2c(ncn2C2OC(COP(=O)(O)O)C(O)C2O)c(=O)[nH]1 (centres undefined) [Guanosine 5'-monophosphate]
21,4.96,Nc1nc2c(ncn2C2OC(CO)C(O)C2O)c(=O)[nH]1 (centres undefined) [Guanosine]

row,LC retention time [min],SMILES
1,3.39,NC(=O)C(N)Cc1c[nH]c2ccccc12 (centres undefined) [H-Trp-NH2]
2,2.97,COc1ccc(C2CC(=O)c3c(O)cc(OC4OC(COC5OC(C)C(O)C(O)C5O)C(O)C(O)C4O)cc3O2)cc1O (centres undefined) [Hesperidin]
3,1.27,CCCCCC(=O)NCC(=O)O [Hexanoyl Glycine]
4,1.59,O=C(O)CNC(=O)c1ccccc1 [Hippuric acid]
5,7.92,NCCc1cnc[nH]1 [Histamine]
6,0.479,CC12CCC(=O)C=C1CCC1C2C(O)CC2(C)C1CCC2(O)C(=O)CO (centres undefined) [Hydrocortisone]
7,0.485,CC12C=CC(=O)C=C1CCC1C2C(O)CC2(C)C1CCC2(O)C(=O)CO (centres undefined) [Hydroretrocortine]
8,6.07,NCCS(=O)O [Hypotaurine]
9,2.29,O=c1[nH]cnc2nc[nH]c12 [Hypoxanthine]
10,0.939,CN(C)CCCN1c2ccccc2CCc2ccccc21 [Imipramine]
11,0.475,NC(=O)Cc1c[nH]c2ccccc12 [Indole-3-acetamide]
12,0.506,O=C(O)c1c[nH]c2ccccc12 [Indole-3-carboxylic acid]
13,1.31,OCCc1c[nH]c2ccccc12 [Indole-3-ethanol]
14,0.455,O=C(O)C(=O)Cc1c[nH]c2ccccc12 [Indole-3-pyruvic acid]
15,3.94,O=c1[nH]cnc2c1ncn2C1OC(CO)C(O)C1O (centres undefined) [Inosine]
16,0.767,CC(C)Oc1ccc2c(=O)c(-c3ccccc3)coc2c1 [Ipriflavone]
17,0.475,CCCCC1=NC2(CCCC2)C(=O)N1Cc1ccc(-c2ccccc2-c2nn[nH]n2)cc1 [Irbesartan]
18,3.05,O=C(O)c1ccncc1 [Isonicotinic acid]
19,4.02,Nc1nc2[nH]c(=O)cnc2c(=O)[nH]1 [Isoxanthopterin]
20,0.455,CC(C(=O)O)c1cccc(C(=O)c2ccccc2)c1 (centres undefined) [Ketoprofen]
21,0.567,O=C(c1ccccc1)c1ccc2n1CCC2C(=O)O (centres undefined) [Ketorolac]

row,SMILES,LC retention time [min]
1,CC(=O)c1c(O)cc(C)oc1=O [DehydroacetIc acid],0.444
2,O=c1ccc2cc(OC3OC(CO)C(O)C(O)C3O)c(O)cc2o1 (centres undefined) [Esculin],2.52
3,CCOC(=O)c1cncn1C(C)c1ccccc1 (centres undefined) [Etomidate],0.602
4,CN(C)Cc1c[nH]c2ccccc12 [Gramine],1.61
5,O=C(O)Cc1cnc[nH]1 [Imidazole-4(5)-acetic Acid],6.1
